The target of experiment [1] is Bone morphogenetic protein receptor type-1B (Homo sapiens, UniProt O00238).
Experiment [2] deals with Epithelial discoidin domain-containing receptor 1 (Homo sapiens, UniProt Q08345).
For experiment [3], the target named is T1, ATP-dependent RNA helicase DHX30 (Homo sapiens, UniProt Q7L2E3).
T1 sequence (Q7L2E3 whole entry): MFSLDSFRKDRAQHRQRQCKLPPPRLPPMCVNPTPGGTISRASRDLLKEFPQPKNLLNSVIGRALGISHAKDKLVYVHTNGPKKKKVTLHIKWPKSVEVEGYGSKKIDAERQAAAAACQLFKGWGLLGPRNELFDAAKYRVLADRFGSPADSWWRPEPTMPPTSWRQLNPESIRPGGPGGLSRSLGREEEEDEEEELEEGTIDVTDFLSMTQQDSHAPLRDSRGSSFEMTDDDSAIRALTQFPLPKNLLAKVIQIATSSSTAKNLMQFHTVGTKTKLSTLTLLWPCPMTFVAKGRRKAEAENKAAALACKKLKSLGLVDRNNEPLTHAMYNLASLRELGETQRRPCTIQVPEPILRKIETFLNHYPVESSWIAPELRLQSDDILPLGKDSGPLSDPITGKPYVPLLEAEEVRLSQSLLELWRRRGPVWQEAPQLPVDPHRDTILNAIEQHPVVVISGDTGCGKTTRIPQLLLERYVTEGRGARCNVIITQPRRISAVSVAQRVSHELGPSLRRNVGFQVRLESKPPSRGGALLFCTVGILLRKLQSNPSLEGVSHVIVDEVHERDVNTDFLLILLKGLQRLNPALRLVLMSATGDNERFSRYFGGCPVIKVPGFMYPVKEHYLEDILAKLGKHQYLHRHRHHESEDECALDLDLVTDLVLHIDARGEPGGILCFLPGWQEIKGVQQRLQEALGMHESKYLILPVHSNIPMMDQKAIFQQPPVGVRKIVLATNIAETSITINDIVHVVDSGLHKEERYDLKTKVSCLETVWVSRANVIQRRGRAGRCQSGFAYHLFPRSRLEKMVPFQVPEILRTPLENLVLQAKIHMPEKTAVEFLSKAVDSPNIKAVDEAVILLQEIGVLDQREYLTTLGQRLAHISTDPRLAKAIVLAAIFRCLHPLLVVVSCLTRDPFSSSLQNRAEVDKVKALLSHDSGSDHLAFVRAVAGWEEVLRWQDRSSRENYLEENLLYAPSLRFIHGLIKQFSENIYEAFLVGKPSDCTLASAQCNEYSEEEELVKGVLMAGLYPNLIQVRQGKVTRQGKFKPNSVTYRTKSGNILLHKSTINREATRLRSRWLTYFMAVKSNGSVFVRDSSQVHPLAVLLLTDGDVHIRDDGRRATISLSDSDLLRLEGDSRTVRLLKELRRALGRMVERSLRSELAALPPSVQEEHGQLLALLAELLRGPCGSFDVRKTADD

Experiment [4] has as its target T2, Ferrochelatase, mitochondrial (Homo sapiens, UniProt P22830).
T2 sequence (P22830 whole entry): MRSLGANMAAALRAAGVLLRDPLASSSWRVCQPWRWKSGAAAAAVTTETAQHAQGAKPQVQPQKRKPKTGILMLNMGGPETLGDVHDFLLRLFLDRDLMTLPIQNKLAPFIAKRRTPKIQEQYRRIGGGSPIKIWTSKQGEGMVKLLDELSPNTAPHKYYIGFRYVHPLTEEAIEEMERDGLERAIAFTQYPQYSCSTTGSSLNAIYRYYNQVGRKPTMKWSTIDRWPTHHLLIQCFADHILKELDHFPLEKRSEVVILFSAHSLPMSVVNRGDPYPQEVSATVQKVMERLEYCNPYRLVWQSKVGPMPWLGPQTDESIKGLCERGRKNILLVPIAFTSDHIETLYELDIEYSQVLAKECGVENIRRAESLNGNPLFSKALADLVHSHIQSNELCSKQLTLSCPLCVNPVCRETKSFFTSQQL

The target of experiment [5] is G protein-coupled receptor kinase 6 (Homo sapiens, UniProt P43250).
Experiment [6] has as its target T3, Bifunctional phosphoribosylaminoimidazole carboxylase/phosphoribosylaminoimidazole succinocarboxamide synthetase (Homo sapiens, UniProt P22234).
T3 sequence (P22234 whole entry): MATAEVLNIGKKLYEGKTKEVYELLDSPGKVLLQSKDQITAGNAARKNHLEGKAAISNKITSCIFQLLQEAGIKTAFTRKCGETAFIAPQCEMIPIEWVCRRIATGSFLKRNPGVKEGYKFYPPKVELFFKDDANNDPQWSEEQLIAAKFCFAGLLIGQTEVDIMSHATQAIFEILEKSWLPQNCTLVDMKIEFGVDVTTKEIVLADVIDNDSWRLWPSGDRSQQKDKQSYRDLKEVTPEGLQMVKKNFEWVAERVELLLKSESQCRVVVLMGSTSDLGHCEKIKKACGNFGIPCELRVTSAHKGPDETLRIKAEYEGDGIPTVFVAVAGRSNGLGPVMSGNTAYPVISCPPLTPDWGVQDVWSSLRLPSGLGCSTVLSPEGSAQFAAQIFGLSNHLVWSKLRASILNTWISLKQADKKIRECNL

Experiment [7] deals with Serine/threonine-protein kinase N1 (Homo sapiens, UniProt Q16512).
For experiment [8], the target named is T4, ADP/ATP translocase 2 (Homo sapiens, UniProt P05141).
T4 sequence (P05141 whole entry): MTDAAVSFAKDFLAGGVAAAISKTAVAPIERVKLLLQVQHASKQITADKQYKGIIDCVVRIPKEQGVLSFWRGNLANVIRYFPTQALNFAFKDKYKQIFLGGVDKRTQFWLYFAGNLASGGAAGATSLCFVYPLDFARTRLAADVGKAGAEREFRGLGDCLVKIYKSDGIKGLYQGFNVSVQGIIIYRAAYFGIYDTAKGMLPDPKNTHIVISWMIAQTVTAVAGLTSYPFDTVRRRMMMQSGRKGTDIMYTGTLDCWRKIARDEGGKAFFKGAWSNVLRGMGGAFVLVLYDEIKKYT

In experiment [9] the target is Insulin receptor (Homo sapiens, UniProt P06213).
For experiment [10], the target named is Cyclin-dependent kinase 5 (Homo sapiens, UniProt Q00535).
Experiment [11] deals with Tyrosine-protein kinase Fer (Homo sapiens, UniProt P16591).
In experiment [12] the target is Ribosomal protein S6 kinase alpha-4 (Homo sapiens, UniProt O75676).
Experiment [13] deals with Proto-oncogene tyrosine-protein kinase receptor Ret (Homo sapiens, UniProt P07949).

Activity calls are given as the source filed them. For most assays here, no stated cut-off is given here; in the data, actives have a measured Kd and inactives only a lower limit.

Chain of Bone morphogenetic protein receptor type-1B (O00238 whole entry, the tested form may be a part): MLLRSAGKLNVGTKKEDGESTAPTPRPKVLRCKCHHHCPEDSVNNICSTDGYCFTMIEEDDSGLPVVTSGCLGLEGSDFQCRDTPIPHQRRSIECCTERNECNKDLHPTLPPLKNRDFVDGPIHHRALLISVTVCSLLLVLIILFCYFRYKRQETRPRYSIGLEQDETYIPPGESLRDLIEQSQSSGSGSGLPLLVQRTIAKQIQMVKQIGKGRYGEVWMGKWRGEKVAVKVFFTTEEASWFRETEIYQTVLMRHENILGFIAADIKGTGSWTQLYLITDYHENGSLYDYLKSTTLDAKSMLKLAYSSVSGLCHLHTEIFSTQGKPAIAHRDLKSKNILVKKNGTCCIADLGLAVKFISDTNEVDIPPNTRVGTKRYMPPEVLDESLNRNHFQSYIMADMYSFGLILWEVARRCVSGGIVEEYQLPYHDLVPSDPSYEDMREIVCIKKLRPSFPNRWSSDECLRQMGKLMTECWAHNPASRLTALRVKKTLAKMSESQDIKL
Chain of G protein-coupled receptor kinase 6 (P43250 whole entry): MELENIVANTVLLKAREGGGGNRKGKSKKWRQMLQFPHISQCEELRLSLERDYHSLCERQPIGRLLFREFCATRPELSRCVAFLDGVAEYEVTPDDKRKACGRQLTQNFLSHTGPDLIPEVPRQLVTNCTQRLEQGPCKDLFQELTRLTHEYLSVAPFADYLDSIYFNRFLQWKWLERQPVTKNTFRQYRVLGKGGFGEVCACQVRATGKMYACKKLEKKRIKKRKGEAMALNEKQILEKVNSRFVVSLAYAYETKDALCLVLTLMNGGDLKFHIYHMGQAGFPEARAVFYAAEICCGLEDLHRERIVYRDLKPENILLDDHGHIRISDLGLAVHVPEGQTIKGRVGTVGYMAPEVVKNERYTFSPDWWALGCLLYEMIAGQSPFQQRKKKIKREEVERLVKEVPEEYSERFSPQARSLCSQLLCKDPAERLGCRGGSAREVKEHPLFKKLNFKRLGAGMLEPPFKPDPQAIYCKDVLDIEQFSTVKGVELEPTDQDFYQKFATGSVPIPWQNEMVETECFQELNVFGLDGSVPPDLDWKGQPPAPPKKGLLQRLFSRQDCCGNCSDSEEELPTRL
Chain of Ribosomal protein S6 kinase alpha-4 (O75676 whole entry): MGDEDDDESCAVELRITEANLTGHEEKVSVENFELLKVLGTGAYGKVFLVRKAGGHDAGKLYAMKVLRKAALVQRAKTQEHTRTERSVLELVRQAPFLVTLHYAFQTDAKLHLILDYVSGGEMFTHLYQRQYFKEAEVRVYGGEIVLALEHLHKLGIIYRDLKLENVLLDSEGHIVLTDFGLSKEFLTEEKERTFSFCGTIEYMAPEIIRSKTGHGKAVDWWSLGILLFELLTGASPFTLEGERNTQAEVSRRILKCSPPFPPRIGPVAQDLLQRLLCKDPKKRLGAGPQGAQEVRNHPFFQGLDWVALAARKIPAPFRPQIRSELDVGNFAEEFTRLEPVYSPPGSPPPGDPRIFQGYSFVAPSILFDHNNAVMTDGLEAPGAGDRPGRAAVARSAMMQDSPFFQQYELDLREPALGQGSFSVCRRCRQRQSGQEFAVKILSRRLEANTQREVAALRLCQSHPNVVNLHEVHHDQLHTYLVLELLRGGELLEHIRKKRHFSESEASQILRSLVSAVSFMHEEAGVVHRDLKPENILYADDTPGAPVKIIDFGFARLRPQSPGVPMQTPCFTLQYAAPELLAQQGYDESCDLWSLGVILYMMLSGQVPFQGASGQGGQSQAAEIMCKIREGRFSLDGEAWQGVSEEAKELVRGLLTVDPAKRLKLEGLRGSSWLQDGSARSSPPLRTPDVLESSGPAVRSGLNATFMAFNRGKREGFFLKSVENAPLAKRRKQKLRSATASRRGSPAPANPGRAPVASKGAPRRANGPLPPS
Chain of Tyrosine-protein kinase Fer (P16591 whole entry): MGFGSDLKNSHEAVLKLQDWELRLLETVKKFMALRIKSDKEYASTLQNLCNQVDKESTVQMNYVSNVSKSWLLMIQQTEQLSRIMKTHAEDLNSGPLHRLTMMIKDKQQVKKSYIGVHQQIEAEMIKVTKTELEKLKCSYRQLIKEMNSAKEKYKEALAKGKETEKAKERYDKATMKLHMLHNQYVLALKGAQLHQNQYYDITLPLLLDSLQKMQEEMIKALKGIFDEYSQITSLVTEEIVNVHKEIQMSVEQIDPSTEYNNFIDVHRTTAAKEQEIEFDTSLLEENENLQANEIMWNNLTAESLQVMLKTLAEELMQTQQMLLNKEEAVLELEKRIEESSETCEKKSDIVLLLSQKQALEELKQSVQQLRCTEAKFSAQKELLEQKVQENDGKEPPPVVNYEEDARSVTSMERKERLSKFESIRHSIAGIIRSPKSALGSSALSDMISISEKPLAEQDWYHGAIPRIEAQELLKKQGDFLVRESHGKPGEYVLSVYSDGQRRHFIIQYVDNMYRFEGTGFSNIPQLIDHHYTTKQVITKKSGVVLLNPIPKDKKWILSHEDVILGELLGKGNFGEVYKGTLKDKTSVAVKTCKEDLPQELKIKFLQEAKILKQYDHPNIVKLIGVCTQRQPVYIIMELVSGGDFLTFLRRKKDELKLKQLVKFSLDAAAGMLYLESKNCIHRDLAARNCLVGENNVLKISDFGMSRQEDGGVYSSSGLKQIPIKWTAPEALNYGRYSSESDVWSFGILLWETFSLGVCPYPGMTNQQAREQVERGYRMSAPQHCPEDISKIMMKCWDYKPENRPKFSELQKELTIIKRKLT
Chain of Insulin receptor (P06213 28-758 limits assumed): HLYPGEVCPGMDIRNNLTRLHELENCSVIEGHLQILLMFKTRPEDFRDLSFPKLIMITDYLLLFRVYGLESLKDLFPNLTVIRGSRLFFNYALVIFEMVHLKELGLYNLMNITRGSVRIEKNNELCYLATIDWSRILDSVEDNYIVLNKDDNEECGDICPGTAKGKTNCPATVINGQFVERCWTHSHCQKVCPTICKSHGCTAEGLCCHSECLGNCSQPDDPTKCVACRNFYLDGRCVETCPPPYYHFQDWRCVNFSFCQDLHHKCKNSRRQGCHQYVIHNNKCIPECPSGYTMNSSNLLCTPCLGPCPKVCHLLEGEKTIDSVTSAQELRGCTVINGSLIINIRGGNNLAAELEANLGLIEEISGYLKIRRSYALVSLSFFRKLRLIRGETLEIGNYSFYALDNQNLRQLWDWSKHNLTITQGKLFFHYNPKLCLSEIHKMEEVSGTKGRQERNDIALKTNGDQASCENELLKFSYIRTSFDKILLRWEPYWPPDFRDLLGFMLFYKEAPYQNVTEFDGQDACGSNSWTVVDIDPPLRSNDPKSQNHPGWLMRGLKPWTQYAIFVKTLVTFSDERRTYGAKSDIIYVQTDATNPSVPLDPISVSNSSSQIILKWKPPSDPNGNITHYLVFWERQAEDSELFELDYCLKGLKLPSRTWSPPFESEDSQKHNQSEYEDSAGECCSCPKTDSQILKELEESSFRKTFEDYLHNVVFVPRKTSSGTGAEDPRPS
Chain of Insulin receptor (P06213 763-1382 limits assumed): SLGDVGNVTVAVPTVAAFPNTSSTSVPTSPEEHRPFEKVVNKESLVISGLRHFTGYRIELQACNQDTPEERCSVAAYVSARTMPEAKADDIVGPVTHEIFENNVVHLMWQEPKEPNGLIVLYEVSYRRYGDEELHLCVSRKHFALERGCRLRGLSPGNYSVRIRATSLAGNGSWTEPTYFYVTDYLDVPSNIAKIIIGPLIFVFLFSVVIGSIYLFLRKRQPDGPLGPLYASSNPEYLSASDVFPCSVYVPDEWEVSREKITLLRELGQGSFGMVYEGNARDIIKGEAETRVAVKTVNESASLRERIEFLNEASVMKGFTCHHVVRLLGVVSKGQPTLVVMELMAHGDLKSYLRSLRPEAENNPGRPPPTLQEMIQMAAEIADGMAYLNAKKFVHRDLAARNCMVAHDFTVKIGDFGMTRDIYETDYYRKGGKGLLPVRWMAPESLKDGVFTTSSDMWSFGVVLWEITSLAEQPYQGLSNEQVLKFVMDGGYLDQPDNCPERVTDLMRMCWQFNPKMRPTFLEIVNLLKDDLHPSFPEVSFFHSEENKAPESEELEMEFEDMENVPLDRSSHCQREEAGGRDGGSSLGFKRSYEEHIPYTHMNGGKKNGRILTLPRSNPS
Chain of Cyclin-dependent kinase 5 (Q00535 whole entry): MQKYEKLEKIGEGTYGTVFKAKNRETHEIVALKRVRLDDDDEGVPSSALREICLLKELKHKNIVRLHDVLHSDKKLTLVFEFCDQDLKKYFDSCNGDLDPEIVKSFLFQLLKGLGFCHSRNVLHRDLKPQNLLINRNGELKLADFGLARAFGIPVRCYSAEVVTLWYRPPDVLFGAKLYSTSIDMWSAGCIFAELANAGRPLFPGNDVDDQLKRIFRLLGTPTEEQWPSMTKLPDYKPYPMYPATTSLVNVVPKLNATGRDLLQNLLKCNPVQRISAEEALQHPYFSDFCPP

For `COc1cc(Nc2ncc3c(n2)-c2ccc(Cl)cc2C(c2c(F)cccc2OC)=NC3)ccc1C(=O)O` [ALISERTIB], the Kd in experiment [1], in experiment [2], in experiment [3], in experiment [4], in [5] and in experiment [6] was > 30 µM (inactive) each time. Besides, the Kd in experiment [7] and in experiment [8] was > 30 µM (inactive) each time.
In the case of `O=C(Nc1c[nH]nc1-c1nc2cc(CN3CCOCC3)ccc2[nH]1)NC1CC1` [AT-9283], the Kd – broadly, the constant that tells how readily two partners part at equilibrium – in experiment [1] is 0.021 µM (active); in [3], > 30 µM (inactive); in experiment [4], > 30 µM (inactive); in experiment [5] it was 13.6 µM; in [9], > 30 µM (inactive); in experiment [6], > 30 µM (inactive). Moreover, the Kd in experiment [8] is > 30 µM (inactive).
For the molecule `CNC(=O)c1ccccc1Sc1ccc2c(/C=C/c3ccccn3)n[nH]c2c1` [AXITINIB], the Kd in experiment [3] was > 30 µM (inactive); in experiment [4], 6.84 µM (active); in experiment [5] it was > 30 µM (inactive); in experiment [6], > 30 µM (inactive); in experiment [8] it was > 30 µM (inactive).
Turning to `COc1cc2ncnc(Oc3cccc(NC(=O)Nc4cc(C(C)(C)C(F)(F)F)on4)c3)c2cc1OC` [CEP-32496], the Kd in experiment [1] was > 30 µM (inactive); in experiment [10], > 30 µM (inactive); in [2], 0.124 µM (active); in experiment [3], > 30 µM (inactive); in experiment [4], > 30 µM (inactive); in experiment [11] it was 0.98 µM (active). Moreover, the Kd in experiment [5], in experiment [6], in [7], in experiment [12] and in experiment [8] was > 30 µM (inactive) each time.
Consider `C[C@@H](Oc1cc(-n2cnc3ccc(CN4CCN(C)CC4)cc32)sc1C(N)=O)c1ccccc1C(F)(F)F` [GSK-461364], for which the Kd in experiment [3], in [4], in [5], in experiment [6] and in [8] was > 30 µM (inactive) throughout.
As to `COc1ncc(-c2ccc3nccc(-c4ccnnc4)c3c2)cc1NS(=O)(=O)c1ccc(F)cc1F` [OMIPALISIB], the Kd in experiment [1], in experiment [10], in experiment [2], in experiment [4], in experiment [11] and in experiment [5] was > 30 µM (inactive) in each case. The Kd in [9], in experiment [6], in experiment [7], in experiment [13], in experiment [12] and in experiment [8] was > 30 µM (inactive) each time.
Take `NC(=O)c1c(OCc2c(F)cc(Br)cc2F)nsc1NC(=O)NCCCCN1CCCC1` [OSI-632]: the Kd was > 30 µM (inactive) in [1]; 0.067 µM (active) in experiment [2]; > 30 µM (inactive) in experiment [3]; > 30 µM (inactive) in experiment [4]; > 30 µM (inactive) in experiment [5]; > 30 µM (inactive) in experiment [6]. Besides, the Kd in [8] is > 30 µM (inactive).
For `CNC(=O)c1cc(Oc2ccc(NC(=O)Nc3cc(C(C)(C)C)nn3-c3ccc4ncccc4c3)c(F)c2)ccn1` [REBASTINIB], the Kd in [1] was > 30 µM (inactive); in experiment [10] it was 1.5 µM (active); in experiment [2], 0.272 µM (active); in [3], > 30 µM (inactive); in experiment [4], > 30 µM (inactive); in [5], > 30 µM (inactive). Moreover, the Kd in [9] was > 30 µM (inactive); in [6] it was > 30 µM (inactive); in experiment [7] it was > 30 µM (inactive); in experiment [12], 12.8 µM; in experiment [8], > 30 µM (inactive).
Take `O=C(NOCCO)c1cc(CN2OCCCC2=O)c(F)c(F)c1Nc1ccc(I)cc1F` [RO-4987655]: the Kd in experiment [3], in experiment [4], in experiment [5], in [6] and in experiment [8] was > 30 µM (inactive) throughout.
Consider `CCS(=O)(=O)c1cccc(-c2cc(C(=O)NC3CCN(C)CC3)c(C)c3[nH]c4ncc(C)cc4c23)c1` [TAK-901], for which the Kd was > 30 µM (inactive) in [1]; > 30 µM (inactive) in [10]; 13.8 µM (active) in [2]; > 30 µM (inactive) in [4]; 0.574 µM (active) in [11]; 1.19 µM in experiment [5]. Besides, the Kd in [9] is > 30 µM (inactive); in [6], > 30 µM (inactive); in experiment [7], 2.98 µM (active); in experiment [13], 0.111 µM (active); in experiment [12] it was 3 µM (active); in [8], > 30 µM (inactive).
On to `O=C1NC(=O)[C@@H](c2cn3c4c(cccc24)CCC3)[C@@H]1c1c[nH]c2ccccc12` [TIVANTINIB], for which the Kd in [1], in experiment [10], in experiment [2], in experiment [4], in [11] and in [5] was > 30 µM (inactive) each time. Besides, the Kd in experiment [9], in [6], in experiment [7], in experiment [13], in experiment [12] and in experiment [8] was > 30 µM (inactive) throughout.

For the origin of these results see ChEMBL document CHEMBL3991601, “The target landscape of clinical kinase drugs” (Science, 2017).
